Experiments:
[1] = test system: CD8+ T cells of healthy HLA-A*02+ donors; test: In vitro immunogenicity: T-cell priming with aAPCs loaded with HLA-A*02/peptide complexes and anti-CD28, pMHC multimer readout; assay type: cell-based, human; conditions: for Wells positive [%]: in vitro immunogenicity, HLA-A*02 peptides (SEQ ID No 1-251), pMHC multimer readout
Source text: FIGS. 4A to 4D show exemplary results of peptide-specific in vitro CD8+ T cell responses of a healthy HLA-A*02+ donor. CD8+ T cells were primed using artificial APCs coated with anti-CD28 mAb and HLA-A*02 in complex with SeqID No 27 peptide (FIG. 4A, left panel), SeqID No 229 peptide (FIG. 4B, left panel), SeqID No 230 peptide (FIG. 4C, left panel) and SeqID No 235 peptide (FIG. 4D, left panel), respectively. After three cycles of stimulation, the detection of peptide-reactive cells was performed by 2D multimer staining with A*02/SeqID No 27 (FIG. 4A), A*02/SeqID No 229 (FIG. 4B), A*02/SeqID No 230 (FIG. 4C) or A*02/SeqID No 235 (FIG. 4D). Right panels (FIGS. 4A, 4B, 4C and 4D) show control staining of cells stimulated with irrelevant A*02/peptide complexes. Viable singlet cells were gated for CD8+ lymphocytes. Boolean gates helped excluding false-positive events detected with multimers specific for different peptides. Frequencies of specific multimer+ cells among CD8+ lymphocytes are indicated.
In order to obtain information regarding the immunogenicity of the TUMAPs of the present invention, the inventors performed investigations using an in vitro T-cell priming assay based on repeated stimulations of CD8+ T cells with artificial antigen presenting cells (aAPCs) loaded with peptide/MHC complexes and anti-CD28 antibody.
In order to perform in vitro stimulations by artificial antigen presenting cells loaded with peptide-MHC complex (pMHC) and anti-CD28 antibody, the inventors first isolated CD8+ T cells from fresh HLA-A*02 leukapheresis products via positive selection using CD8 microbeads (Miltenyi Biotec, Bergisch-Gladbach, Germany) of healthy donors obtained from the University clinics Mannheim, Germany, after informed consent.
PBMCs and isolated CD8+ lymphocytes were incubated in T-cell medium (TCM) until use consisting of RPMI-Glutamax (Invitrogen, Karlsruhe, Germany) supplemented with 10% heat inactivated human AB serum (PAN-Biotech, Aidenbach, Germany), 100 U/ml Penicillin/100 μg/ml Streptomycin (Cambrex, Cologne, Germany), 1 mM sodium pyruvate (CC Pro, Oberdorla, Germany), 20 μg/ml Gentamycin (Cambrex). 2.5 ng/ml IL-7 (PromoCell, Heidelberg, Germany) and 10 U/ml IL-2 (Novartis Pharma, Nurnberg, Germany) were also added to the TCM at this step.
Generation of pMHC/anti-CD28 coated beads, T-cell stimulations and readout was performed in a highly defined in vitro system using four different pMHC molecules per stimulation condition and 8 different pMHC molecules per readout condition.
The purified co-stimulatory mouse IgG2a anti human CD28 Ab 9.3 (Jung et al., 1987) was chemically biotinylated using Sulfo-N-hydroxysuccinimidobiotin as recommended by the manufacturer (Perbio, Bonn, Germany). Beads used were 5.6 μm diameter streptavidin coated polystyrene particles (Bangs Laboratories, IIIinois, USA).
pMHC used for positive and negative control stimulations were A*0201/MLA-001 (peptide […] (SEQ ID NO. 303) from modified Melan-A/MART-1) and A*0201/DDX5-001 ([…] from DDX5, SEQ ID NO. 304), respectively.
800.000 beads/200 μl were coated in 96-well plates in the presence of 4×12.5 ng different biotin-pMHC, washed and 600 ng biotin anti-CD28 were added subsequently in a volume of 200 μl. Stimulations were initiated in 96-well plates by co-incubating […] CD8+ T cells with 2×10^5 washed coated beads in 200 μl TCM supplemented with 5 ng/ml IL-12 (PromoCell) for 3 days at 37° C. Half of the medium was then exchanged by fresh TCM supplemented with 80 U/ml IL-2 and incubating was continued for 4 days at 37° C. This stimulation cycle was performed for a total of three times. For the pMHC multimer readout using 8 different pMHC molecules per condition, a two-dimensional combinatorial coding approach was used as previously described (Andersen et al., 2012) with minor modifications encompassing coupling to 5 different fluorochromes. […]

HLA-A*02 = test: MHC binding assay: UV-ligand exchange and beta2m ELISA, peptide exchange yield; set-up: species or system human; conditions: binding to HLA-A*02, UV-ligand exchange, β2m ELISA
Source text: Candidate peptides for T cell based therapies according to the present invention were further tested for their MHC binding capacity (affinity). The individual peptide-MHC complexes were produced by UV-ligand exchange, where a UV-sensitive peptide is cleaved upon UV-irradiation, and exchanged with the peptide of interest as analyzed. Only peptide candidates that can effectively bind and stabilize the peptide-receptive MHC molecules prevent dissociation of the MHC complexes. To determine the yield of the exchange reaction, an ELISA was performed based on the detection of the light chain (β2m) of stabilized MHC complexes. The assay was performed as generally described in Rodenko et al. (Rodenko et al., 2006).
96 well MAXISorp plates (NUNC) were coated over night with 2 ug/ml streptavidin in PBS at room temperature, washed 4× and blocked forl h at 37° C. in 2% BSA containing blocking buffer. Refolded HLA-A*02:01/MLA-001 monomers served as standards, covering the range of 15-500 ng/ml. Peptide-MHC monomers of the UV-exchange reaction were diluted 100 fold in blocking buffer. Samples were incubated for 1 h at 37° C., washed four times, incubated with 2 ug/ml HRP conjugated anti-β2m for 1 h at 37° C., washed again and detected with TMB solution that is stopped with […]. Absorption was measured at 450 nm. Candidate peptides that show a high exchange yield (preferably higher than 50%, most preferred higher than 75%) are generally preferred for a generation and production of antibodies or fragments thereof, and/or T cell receptors or fragments thereof, as they show sufficient avidity to the MHC molecules and prevent dissociation of the MHC complexes.

Substance	Wells positive [%] [1]	Peptide exchange (HLA-A*02)	in vitro immunogenicity, Wells ([1]; HLA-A*02 peptides, share of positive wells)
4 (KLMPGTYTL; listed as Homo sapiens) [compound 4]	+ (<20% = +)	++++ (> = 75% = ++++)	–
12 (GLLPLLHRA; listed as Homo sapiens) [compound 12]	++++ (> = 70% = ++++)	++++ (> = 75% = ++++)	–
249 (GLCERLVSL; listed as Homo sapiens) [compound 249]	+ (<20% = +)	++++ (> = 75% = ++++)	–
293 (FLVDGSWSI; listed as Homo sapiens) [compound 293]	–	–	+ (<20% = +)

— patent US10058598B2, “Peptides and combination of peptides for use in immunotherapy against various cancers” (immatics biotechnologies GmbH, priority 2015, dated 2018)
